Data taken from patent publication US8197860B2, “Method for enhancing nutrient absorption with astragalosides” (Nuliv Holding Inc., priority 2005, dated 2012).

Assays:
Assay type in all cases: cell-based, human
Caco2 cells [1] = assay: Folate uptake assay; design: key to * (regulatory effect on folate uptake): ↑: the arrows that point up represent the enhancing effect on folate uptake; settings: for * (regulatory effect on folate uptake) / Percentage (folate uptake vs own control) / Uptake rate (folate): compound 0.1 μM; for Uptake rate (folate): 2 days, 5 μM folate, pH 6.0
Description: (§1) To evaluate the effect of the isolated astragaloside compound on the uptake of nutrient substances across the intestinal lumen, Caco-2 cells were grown on permeable filter as an experimental model. Caco2 cells originate from human colonic adenocarcinoma and spontaneously differentiate into an enterocyte-like phenotype after two weeks. The Caco-2 cell line, derived from a human colorectal carcinoma, has been used as an in vitro model system for studying drug absorption in gastrointestinal tract. These cells form monolayers with well-developed tight-junctions, and have been evaluated in details as an in vitro model to study both transcellular transport of nutrients and drugs in intestinal lumen.
(§2) Caco-2 cells were obtained from the ATCC (American Type Culture Collection). The cells were maintained in Dulbecco's modified Eagle medium (DMEM) containing 4.5 g/L glucose and 25 mM Hepes, supplemented with 10% fetal calf serum, 100 U/mL penicillin G and […]. The medium was changed every second day. The cells were routinely checked for Mycoplasma in monthly intervals. Caco-2 cells were cultured on semi-permeable membranes to differentiate into a highly functionalized epithelial barrier with remarkable morphological and biochemical similarity to the small intestinal columnar epithelium. The Caco-2 cell monolayers could therefore be used to study the membrane transport properties of many compounds. To trypsinize the cells, the culture dish was washed once with phosphate-buffered saline (PBS) followed by adding trypsine-EDTA for 10 minutes. The trypsinized cells were separated and filtered into single cells using a 35-μm strainer cap (Falcon 2235) before being seeded for further experiments.
(§3) Caco-2 cells (5×10^4) were seeded in a 48-well plate and maintained in culture medium (DMEM with 10% FBS, 1% nonessential amino acids, L-glutamine, penicillin G (100 U/mL), streptomycin (10 μg/mL), and amphotericin B (2.5 μg/mL) in a 37° C. incubator for 10 days for the cells to differentiate. The culture medium was changed once every two days. The cells were then washed with PBS before replenishing with the culture medium containing 5% FBS and various astragalosides at the indicated concentrations (0.01, 0.1 and 1 μM) for 48 hours. The Caco2 cells were washed out of remaining glucose with PBS and replaced in the glucose buffer (80 mM NaCl, 100 mM mannitol, 20 mM Tris-HCl, pH 7.4, 3 mM K2HPO4, 1 mM CaCl2, 1 mg/mL BSA) for 1 hour. Glucose uptake was initiated by replacing the glucose buffer with 0.2 ml of glucose buffer containing 2 μCi/mL of ^14C-glucose and unlabeled cold glucose to give a final glucose concentration of 25 mM. Glucose uptake was stopped by removing the glucose buffer and washing with PBS at designated time intervals. The cells were lysed in 0.2 mL of 0.2 N NaOH, and 20 μL of the cell lysate were transferred to the filter-bottomed UniFilter plates (Perkin-Elmer, Wellesley, Mass., USA) and dried in a vacuum oven at 37° C. The bottom of the UniFilter plate was sealed and 25 μL of the counting solution were added into each well. Adhesive plate sealers were used in place of the lids and radioactivity of each sample was counted using the microplate liquid scintillation counter (TopCount, Packard NXT, Packard BioScience Company, Meriden, Conn., USA). The amount of glucose accumulated in the cells was calculated and normalized to protein concentration, and uptake rate was expressed as nanomoles of glucose per minutes per milligram of cell protein (nmol/min/mg). Protein concentration was determined by a standard Bicinchoninic acid (BCA) protein assay. Nonspecific glucose uptake was measured by adding 2 μCi of L-[^14C]-glucose and subtracting from each determination to obtain specific glucose uptake.
The Caco2 cells were subjected to folate uptake test in a manner similar to that described in the glucose uptake assay in Example 1 above. […]

Caco2 cells [2] = assay: Glucose uptake assay; design: key to * (regulatory effect on glucose uptake): ↑: the arrows that point up represent the enhancing effect on the glucose uptake; settings: for Regulatory effects on the glucose uptake of the Caco2 cells: Table 2 summary; for Uptake rate (glucose): 48 hours, 25 mM glucose
Description: as §1, §2, §3

Caco-2 cell monolayer [3] = assay: Tryptophan absorption assay (transport across Caco-2 cell monolayer); design: key to * (regulatory effect on tryptophan transport): ↑: the arrows that point up represent the enhancing effect on the tryptophan transport; settings: for Regulatory effects on the tryptophan transport across the Caco2 cell monolayer: Table 4 summary
Description: as §1, §2
(§4) In measuring transport of arginine across the Caco-2 cell monolayer, both sides of the transwells were washed with arginine incubation buffer consisting of: 137 mM NaCl, 10 mM Hepes, 0.3 mM NaH2PO4, 0.3 mM K2HPO4, 5.4 mM KCl, 2.8 mM CaCl2, 1 mM MgSO4, 10 mM glucose, adjusted to pH 7.4. Then, the cell layer was preincubated in the incubation buffer at 37° C. for 1 h. The volume of incubation buffer was 0.2 mL and 0.9 mL in the apical and basolateral chambers, respectively. The cells were replaced with fresh incubation medium in both chambers prior to the transport experiment. The transport experiment was initiated by replacing the incubation solution on the apical side with solution containing 10 mM of L-arginine in which 0.125 μCi/mL of L-[^3H]-arginine was included. At designated time intervals, 10 μL-solution samples were removed from the basolateral side and radioactivity of each sample was counted using a microplate liquid scintillation counter (TopCount, Packard NXT). During the experiment, when a 10 μL-solution sample was removed from the basolateral side every time, 10 μL buffer was supplemented to keep the volume constant. The uptake of [^3H]-mannitol was used to correct for nonspecific transport of molecules across the monolayer membrane. Results were expressed as the nanomoles of arginine transport across the Caco-2 cell monolayers with respect to time in minutes (nmol/min).
The experimental procedures similar to those in Example 2 were used for measuring the uptake of tryptophan molecules across the Caco-2 membrane, except using a tryptophan incubation buffer consisting of 137 mM choline chloride, 10 mM Hepes, 0.6 mM KH2PO4, 5.4 mM KCl, 2.8 mM CaCl2, 1 mM MgSO4, and 10 mM glucose, and having its pH adjusted to 7.4. Results were expressed as the nanomoles of tryptophan transport across the Caco-2 cell monolayers with respect to time in minutes (nmol/min).

Caco-2 cell monolayer [4] = assay: Arginine absorption assay (transport across Caco-2 cell monolayer); design: key to * (regulatory effect on arginine transport): ↑: the arrows that point up represent the enhancing effect on the arginine transport; settings: for Regulatory effects on the arginine transport across the Caco2 cell monolayer: Table 3 summary; for Transport rate (arginine): 10 mM L-arginine apical
Description: as §1, §2, §4

Row | Structure (SMILES) | * (regulatory effect on folate uptake) (Caco2 cells [1]) | Percentage (folate uptake vs own control) (Caco2 cells [1]) | Uptake rate (folate) (Caco2 cells [1]) | Regulatory effects on the glucose uptake of the Caco2 cells (Caco2 cells [2]) | * (regulatory effect on glucose uptake) (Caco2 cells [2]; compound 0.01 μM) | Percentage (glucose uptake, control = 100) (Caco2 cells [2]; compound 0.01 μM) | Uptake rate (glucose) (Caco2 cells [2]; compound 0.01 μM) | * (regulatory effect on glucose uptake) (Caco2 cells [2]; compound 0.1 μM) | Percentage (glucose uptake, control = 100) (Caco2 cells [2]; compound 0.1 μM) | Uptake rate (glucose) (Caco2 cells [2]; compound 0.1 μM) | Percentage (glucose uptake, control = 100) (Caco2 cells [2]; compound 1 μM) | Uptake rate (glucose) (Caco2 cells [2]; compound 1 μM) | Regulatory effects on the tryptophan transport across the Caco2 cell monolayer (Caco-2 cell monolayer [3]) | * (regulatory effect on tryptophan transport) (Caco-2 cell monolayer [3]; compound 0.01 μM) | Percentage (tryptophan transport, control = 100) (Caco-2 cell monolayer [3]; compound 0.01 μM) | Transport rate (tryptophan) (Caco-2 cell monolayer [3]; compound 0.01 μM) | * (regulatory effect on tryptophan transport) (Caco-2 cell monolayer [3]; compound 0.1 μM) | Percentage (tryptophan transport, control = 100) (Caco-2 cell monolayer [3]; compound 0.1 μM) | Transport rate (tryptophan) (Caco-2 cell monolayer [3]; compound 0.1 μM) | * (regulatory effect on tryptophan transport) (Caco-2 cell monolayer [3]; compound 1 μM) | other results
1 | CC(C)(O)C1CC[C@](C)(C2[C@@H](O)C[C@@]3(C)C4C[C@H](OC5OC(CO)C(O)C(O)C5O)C5C(C)(C)[C@@H](O)CCC56CC46CC[C@]23C)O1 (stereo partly drawn) [AA, cycloastragenol 6-O-β-D-gluco-pyranose] | ↑ | 158.52% | 84.030 ± 4.9410 pmol/mg/min | had regulatory effects on the glucose uptake | ↑ | 179.69% | 11.450 ± 3.2760 nmol/mg/min | ↑ | 146.67% | 9.3460 ± 2.3210 nmol/mg/min | 145.68% | 9.2830 ± 2.1150 nmol/mg/min | had regulatory effects on the tryptophan transport | ↑ | 133.08% | 11.900 ± 0.6231 nmol/min | ↑ | 156.56% | 14.000 ± 0.6445 nmol/min | ↑ | * (regulatory effect on glucose uptake) (Caco2 cells [2]; compound 1 μM): ↑; Percentage (tryptophan transport, control = 100) (Caco-2 cell monolayer [3]; compound 1 μM): 135.32%; Transport rate (tryptophan) (Caco-2 cell monolayer [3]; compound 1 μM): 12.100 ± 0.5197 nmol/min; Tryptophan transport rate (Caco-2 cell monolayer [3]; concentration from 0.01 μM to 1 mM): increased; Regulatory effects on the arginine transport across the Caco2 cell monolayer (Caco-2 cell monolayer [4]): had regulatory effects on the arginine transport; * (regulatory effect on arginine transport) (Caco-2 cell monolayer [4]; compound 0.01 μM): ↑; Percentage (arginine transport, control = 100) (Caco-2 cell monolayer [4]; compound 0.01 μM): 199.66%; Transport rate (arginine) (Caco-2 cell monolayer [4]; compound 0.01 μM): 21.3347 ± 1.7800 nmol/min; * (regulatory effect on arginine transport) (Caco-2 cell monolayer [4]; compound 0.1 μM): ↑; Percentage (arginine transport, control = 100) (Caco-2 cell monolayer [4]; compound 0.1 μM): 170.48%; Transport rate (arginine) (Caco-2 cell monolayer [4]; compound 0.1 μM): 18.2169 ± 1.8700 nmol/min; * (regulatory effect on arginine transport) (Caco-2 cell monolayer [4]; compound 1 μM): ↑; Percentage (arginine transport, control = 100) (Caco-2 cell monolayer [4]; compound 1 μM): 162.06%; Transport rate (arginine) (Caco-2 cell monolayer [4]; compound 1 μM): 17.3164 ± 1.6150 nmol/min; Arginine transport rate (Caco-2 cell monolayer [4]; concentration from 0.01 μM to 1 μM): increased
2 | CC(=O)OC1C(O)COC(OC2CCC34CC35CCC3(C)C(C6(C)CCC(C(C)(C)O)O6)C(O)CC3(C)C5CC(OC3OC(CO)C(O)C(O)C3O)C4C2(C)C)C1OC(C)=O (stereo not shown) [AS1, astragaloside I] | ↑ | 150.00% | 79.710 ± 3.0410 pmol/mg/min | had regulatory effects on the glucose uptake | ↑ | 146.75% | 9.3510 ± 1.1370 nmol/mg/min | ↑ | 122.82% | 7.8260 ± 1.7510 nmol/mg/min | 98.52% | 6.2780 ± 1.9930 nmol/mg/min | had regulatory effects on the tryptophan transport | ↑ | 248.49% | 22.220 ± 0.8695 nmol/min | ↑ | 258.67% | 23.130 ± 1.3120 nmol/min | ↑ | Folate uptake versus control group (Caco2 cells [1]; 0.1 μM, FIG. 4): increased folate uptake; Percentage (tryptophan transport, control = 100) (Caco-2 cell monolayer [3]; compound 1 μM): 178.93%; Transport rate (tryptophan) (Caco-2 cell monolayer [3]; compound 1 μM): 16.000 ± 1.3190 nmol/min; Tryptophan transport rate (Caco-2 cell monolayer [3]; concentration from 0.01 μM to 0.1 mM): increased; Regulatory effects on the arginine transport across the Caco2 cell monolayer (Caco-2 cell monolayer [4]): had regulatory effects on the arginine transport; * (regulatory effect on arginine transport) (Caco-2 cell monolayer [4]; compound 0.001 μM): ↑; Percentage (arginine transport, control = 100) (Caco-2 cell monolayer [4]; compound 0.001 μM): 133.37%; Transport rate (arginine) (Caco-2 cell monolayer [4]; compound 0.001 μM): 14.2554 ± 0.5851 nmol/min; * (regulatory effect on arginine transport) (Caco-2 cell monolayer [4]; compound 0.01 μM): ↑; Percentage (arginine transport, control = 100) (Caco-2 cell monolayer [4]; compound 0.01 μM): 151.91%; Transport rate (arginine) (Caco-2 cell monolayer [4]; compound 0.01 μM): 16.2324 ± 0.7215 nmol/min; * (regulatory effect on arginine transport) (Caco-2 cell monolayer [4]; compound 0.1 μM): ↑; Percentage (arginine transport, control = 100) (Caco-2 cell monolayer [4]; compound 0.1 μM): 147.21%; Transport rate (arginine) (Caco-2 cell monolayer [4]; compound 0.1 μM): 15.7300 ± 1.1250 nmol/min; Arginine transport rate (Caco-2 cell monolayer [4]; concentration from 0.001 μM to 0.1 μM): increased
